From US7432392B2, “Ester derivatives and medical use thereof” (Japan Tobacco Inc., priority 2003, dated 2008) come the findings set out here.

The term IC50 denotes the concentration needed to halve the response being measured. A low value points to higher potency. By melting point is commonly meant the temperature of the solid-liquid transition.

Where only a bound is given, the exact number is not on record here.

The test system of series [1] is apolipoprotein B secretion from HepG2 cells. In words: Inhibition of apolipoprotein B secretion from HepG2 cells. It counts as cell-based. The note with it: Homo sapiens, about 20 hours incubation, apo B in supernatant by ELISA. As for the experimental part: HepG2 cells were suspended in Dulbecco's Modified Eagle's Medium (DMEM) (containing 10% fetal bovine serum, 100 units/mL penicillin and 100 μg/mL streptomycin), and placed on a 96-well plate (4×10^4 cells/well), then incubated for 24 hours. After removal of the medium, DMEM was replaced by a medium containing a sample dissolved in DMSO or a medium containing DMSO (concentration of DMSO: 0.5%) and incubation was further performed for about 20 hours, after which the supernatant was recovered, and concentration of apo B in the supernatant was assayed by Enzyme-Linked Immunosorbent Assay (ELISA)
ELISA was carried out as follows. Anti-human apo B monoclonal antibody (0.5 μg/well) diluted with a 50 mM sodium carbonate/sodium bicarbonate buffer was placed in a 96-well plate for ELISA, and allowed to stand at room temperature for 15 hours. After washing the plate, a blocking solution (250 μL/well) was placed in the well, and allowed to stand at room temperature for 1.5 hours. After washing the plate, a standard and a sample (100 μL/well) were placed in the well and allowed to stand at room temperature for 1.5 hours. The standard was prepared by adjusting the concentration of the purified human apo B with the DMEM to 0 to 250 ng/mL. After washing the plate, an anti-human apo B polyclonal antibody labeled with a horse radish peroxidase which was diluted in 1:1000 with DEME (100 μL/well) was added, and allowed to stand at room temperature for 1.5 hours. After washing the plate, 2,2-azinobis(3-ethylbenzothiazoline-6-sulfonic acid) solution (100 μL/well) was placed in the well, and allowed to stand at room temperature for 0.5 hour. The reaction was stopped by addition of 2% oxalic acid (100 μL/well), and absorbency at 405 nm was measured. Concentration of apo B in the sample was calculated on the basis of a standard curve of the standard. Inhibition rate (%) was calculated from the assayed values in accordance with the following equation. Inhibition rate (%)=100×(1 minus (concentration of apo B in sample group/concentration of apo B in DMSO group).
Based on the above equation, 50% inhibition concentration (IC50) was determined.

Series [2] deals with T1, Microsomal triglyceride transfer protein (MTP) from bovine liver (Bos taurus, UniProt P55156).
T1 construct: the purified MTP was used for the test; from tissue; host or cells: bovine liver
T1 sequence (P55156 12-887): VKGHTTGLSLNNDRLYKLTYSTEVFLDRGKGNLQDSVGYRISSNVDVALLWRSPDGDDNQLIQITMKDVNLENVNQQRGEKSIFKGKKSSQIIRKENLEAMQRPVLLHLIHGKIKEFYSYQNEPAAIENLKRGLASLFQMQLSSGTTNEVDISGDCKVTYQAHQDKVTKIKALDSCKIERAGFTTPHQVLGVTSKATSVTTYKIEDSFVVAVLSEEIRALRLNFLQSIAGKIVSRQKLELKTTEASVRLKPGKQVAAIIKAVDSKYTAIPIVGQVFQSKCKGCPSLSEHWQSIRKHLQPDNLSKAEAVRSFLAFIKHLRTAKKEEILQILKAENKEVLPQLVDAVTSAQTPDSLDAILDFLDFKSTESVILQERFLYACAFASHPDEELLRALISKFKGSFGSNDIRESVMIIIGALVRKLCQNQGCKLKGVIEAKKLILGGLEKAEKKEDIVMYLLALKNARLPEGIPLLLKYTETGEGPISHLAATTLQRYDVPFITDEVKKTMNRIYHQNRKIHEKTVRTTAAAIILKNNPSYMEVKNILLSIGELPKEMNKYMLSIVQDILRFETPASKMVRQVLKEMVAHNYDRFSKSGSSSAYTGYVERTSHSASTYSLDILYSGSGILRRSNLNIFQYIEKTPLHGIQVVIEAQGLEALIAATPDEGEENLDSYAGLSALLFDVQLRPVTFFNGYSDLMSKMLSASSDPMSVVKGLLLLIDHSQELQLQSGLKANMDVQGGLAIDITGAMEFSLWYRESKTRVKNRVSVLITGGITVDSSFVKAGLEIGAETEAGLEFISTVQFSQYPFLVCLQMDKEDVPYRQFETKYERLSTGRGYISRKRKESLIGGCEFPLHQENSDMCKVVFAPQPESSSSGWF
T1 sequence (P05307 21-510 partner): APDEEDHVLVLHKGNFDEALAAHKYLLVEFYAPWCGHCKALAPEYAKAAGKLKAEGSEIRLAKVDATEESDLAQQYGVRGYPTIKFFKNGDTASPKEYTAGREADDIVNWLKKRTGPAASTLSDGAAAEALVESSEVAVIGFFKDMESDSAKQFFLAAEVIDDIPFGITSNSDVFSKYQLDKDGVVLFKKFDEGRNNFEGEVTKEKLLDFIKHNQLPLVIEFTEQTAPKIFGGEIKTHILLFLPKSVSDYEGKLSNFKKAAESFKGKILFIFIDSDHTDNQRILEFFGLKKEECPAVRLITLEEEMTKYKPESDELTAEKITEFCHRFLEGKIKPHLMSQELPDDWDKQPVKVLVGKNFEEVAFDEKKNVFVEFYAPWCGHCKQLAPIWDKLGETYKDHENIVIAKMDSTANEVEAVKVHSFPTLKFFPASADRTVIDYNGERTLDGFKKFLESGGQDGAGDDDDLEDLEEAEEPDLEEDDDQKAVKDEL
In words: Inhibition of interliposomal triglyceride (TG) transfer activity by MTP. The class given is biochemical. The note with it: MTP-mediated TG transfer between donor and acceptor liposomes, 37° C., one hour. Summed up: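 Partially purified bovine liver MTP (DEAE chromatography) was incubated 1 h at 37° C with ^14C-triolein donor SUV liposomes and unlabeled acceptor liposomes in pH 7.4 Tris buffer with 0.5% BSA. Donor was removed with DEAE cellulose and acceptor radioactivity counted. IC50 came from blank-corrected inhibition relative to DMSO.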

As for `CCOC(=O)C(COC(=O)Cc1ccc(NC(=O)c2ccccc2-c2ccc(C(F)(F)F)cc2)c(OC(=O)CC)c1)(C(=O)OCC)c1ccccc1` [Example 1-2], the IC50 was under 1000 nM in series [1] and under 10 nM in series [2].

Turning to `CCOC(=O)C(COC(=O)Cc1ccc(NC(=O)c2ccccc2-c2ccc(C(F)(F)F)cc2)c(OC(=O)COC)c1)(C(=O)OCC)c1ccccc1` [Example 1-3], the IC50 in series [1] is under 1000 nM; in series [2], under 10 nM.

In the case of `CCOC(=O)C(COC(=O)Cc1cccc(NC(=O)c2ccccc2-c2ccc(C(F)(F)F)cc2)c1OC(C)=O)(C(=O)OCC)c1ccccc1` [Example 1-4], the IC50 in series [1] is under 10000 nM; in series [2], 10 to 100 nM.

In the case of `CCOC(=O)C(COC(=O)COc1ccc(NC(=O)c2ccccc2-c2ccc(C(F)(F)F)cc2)c(C(=O)N(C)C)c1)(C(=O)OCC)c1ccccc1` [Example 3-2, 2-(2-{3-Dimethylcarbamoyl-4-[(4′-trifluoromethylbiphenyl-2-carbonyl)amino]phenoxy}acetoxymethyl)-2-phenylmalonic acid diethyl ester], the melting point fell in the range of 132 to 138 °C. Also, the IC50 in series [2] is under 10 nM.
